According to article PMC6409085, “Three odorant-binding proteins are involved in the behavioral response of Sogatella furcifera to rice plant volatiles” (PeerJ, 2019):
Values joined by “and” are separate entries in the source; they are usually repeats but may differ in a detail not shown here. Identical values can stand only once.

Legend:
S. furcifera adults = experiment: Y-tube olfactometer behavioral trials; format: in vivo, Sogatella furcifera; details: odorant 50 µL/L vs hexane; adults
How it was run: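 Single S. furcifera adults (2 days post-emergence, starved 0.5 h) chose between odorant (100 µL of 50 µL/L on filter paper) and hexane control in a glass Y-tube, charcoal-filtered humidified air 300 mL/min per arm, 25 ± 1 °C, 50% RH. Choice scored if insect passed half an arm and stayed >1 min within 10 min; 45 insects per compound, chi-squared test.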

SfurOBP11 = SfurOBP11 (Sogatella furcifera, UniProt V5T6E3); experiment: biochemical; format: binding
Chain of SfurOBP11 (V5T6E3 entry or part of it): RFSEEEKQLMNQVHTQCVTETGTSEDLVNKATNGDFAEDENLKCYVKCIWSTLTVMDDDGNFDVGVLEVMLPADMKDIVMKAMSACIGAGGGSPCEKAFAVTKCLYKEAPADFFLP
How it was run: (§1)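 Protein 2.0 µM + 1-NPN 2.0 µM, 50 mM Tris-HCl pH 7.4; competitor odorants 2, 4 … 20 µM final; read 2 min post-addition, ex 337/em 390–490 nm; n=3. K1-NPN from 1-NPN titration/Scatchard; Ki from IC50 corrected for free 1-NPN.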

SfurOBP1 = SfurOBP1 (Sogatella furcifera, UniProt V5T8N5); experiment: biochemical; format: binding; details: for Fluorescence competitive binding assay, fluorescence intensity: OBP1, three replicate columns
Chain of SfurOBP1 (V5T8N5 entry or part of it): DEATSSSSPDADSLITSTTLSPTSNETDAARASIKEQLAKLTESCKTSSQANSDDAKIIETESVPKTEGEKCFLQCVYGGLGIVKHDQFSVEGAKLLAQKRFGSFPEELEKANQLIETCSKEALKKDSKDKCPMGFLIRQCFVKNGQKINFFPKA
How it was run: as §1

SfurOBP3 = SfurOBP3 (Sogatella furcifera, UniProt V5T818); experiment: biochemical; format: binding; details: for Fluorescence competitive binding assay, fluorescence intensity: OBP3, three replicate columns
Chain of SfurOBP3 (V5T818 entry or part of it): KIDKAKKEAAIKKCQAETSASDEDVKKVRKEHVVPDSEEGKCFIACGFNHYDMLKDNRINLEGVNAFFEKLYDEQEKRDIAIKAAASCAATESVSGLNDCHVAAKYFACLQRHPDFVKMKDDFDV
How it was run: as §1

SfurOBP2 = SfurOBP2 (Sogatella furcifera, UniProt V5T759); experiment: biochemical; format: binding
Chain of SfurOBP2 (V5T759 entry or part of it): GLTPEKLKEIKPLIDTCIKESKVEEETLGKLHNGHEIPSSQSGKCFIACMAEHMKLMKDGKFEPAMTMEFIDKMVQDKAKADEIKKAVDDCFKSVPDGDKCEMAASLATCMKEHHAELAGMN
How it was run: as §1

IC50 (SfurOBP11; SfurOBP11, protein and 1-NPN both 2.0 µM, competitor 2-20 µM, read-out: IC50): > 20 µM
Fluorescence intensity, fluorescence competitive binding assay, OBP11 (SfurOBP11; ligand concentration 2, replicate 1): 24967
Fluorescence intensity, fluorescence competitive binding assay, OBP11 (SfurOBP11; ligand concentration 2, replicate 2): 25926
Fluorescence intensity, fluorescence competitive binding assay, OBP11 (SfurOBP11; ligand concentration 2, replicate 3): 30699
Fluorescence intensity, fluorescence competitive binding assay, OBP11 (SfurOBP11; ligand concentration 4, replicate 1): 25125
Fluorescence intensity, fluorescence competitive binding assay, OBP11 (SfurOBP11; ligand concentration 4, replicate 2): 27382
Fluorescence intensity, fluorescence competitive binding assay, OBP11 (SfurOBP11; ligand concentration 4, replicate 3): 26896
Fluorescence intensity, fluorescence competitive binding assay, OBP11 (SfurOBP11; ligand concentration 6, replicate 1): 26493
Fluorescence intensity, fluorescence competitive binding assay, OBP11 (SfurOBP11; ligand concentration 6, replicate 2): 26335
Fluorescence intensity, fluorescence competitive binding assay, OBP11 (SfurOBP11; ligand concentration 6, replicate 3): 26650
Fluorescence intensity, fluorescence competitive binding assay, OBP11 (SfurOBP11; ligand concentration 8, replicate 1): 24847
Fluorescence intensity, fluorescence competitive binding assay, OBP11 (SfurOBP11; ligand concentration 8, replicate 2): 24250
Fluorescence intensity, fluorescence competitive binding assay, OBP11 (SfurOBP11; ligand concentration 8, replicate 3): 25420
Fluorescence intensity, fluorescence competitive binding assay, OBP11 (SfurOBP11; ligand concentration 10, replicate 1): 24577
Fluorescence intensity, fluorescence competitive binding assay, OBP11 (SfurOBP11; ligand concentration 10, replicate 2): 24121
Fluorescence intensity, fluorescence competitive binding assay, OBP11 (SfurOBP11; ligand concentration 10, replicate 3): 25032
Fluorescence intensity, fluorescence competitive binding assay, OBP11 (SfurOBP11; ligand concentration 12, replicate 1): 26676
Fluorescence intensity, fluorescence competitive binding assay, OBP11 (SfurOBP11; ligand concentration 12, replicate 2): 27183
Fluorescence intensity, fluorescence competitive binding assay, OBP11 (SfurOBP11; ligand concentration 12, replicate 3): 26168
Fluorescence intensity, fluorescence competitive binding assay, OBP11 (SfurOBP11; ligand concentration 14, replicate 1): 24529
Fluorescence intensity, fluorescence competitive binding assay, OBP11 (SfurOBP11; ligand concentration 14, replicate 2): 23823
Fluorescence intensity, fluorescence competitive binding assay, OBP11 (SfurOBP11; ligand concentration 14, replicate 3): 25235
Fluorescence intensity, fluorescence competitive binding assay, OBP11 (SfurOBP11; ligand concentration 16, replicate 1): 23763
Fluorescence intensity, fluorescence competitive binding assay, OBP11 (SfurOBP11; ligand concentration 16, replicate 2): 25792
Fluorescence intensity, fluorescence competitive binding assay, OBP11 (SfurOBP11; ligand concentration 16, replicate 3): 24713
Fluorescence intensity, fluorescence competitive binding assay, OBP11 (SfurOBP11; ligand concentration 18, replicate 1): 29957
Fluorescence intensity, fluorescence competitive binding assay, OBP11 (SfurOBP11; ligand concentration 18, replicate 2): 29942
Fluorescence intensity, fluorescence competitive binding assay, OBP11 (SfurOBP11; ligand concentration 18, replicate 3): 30678
Fluorescence intensity, fluorescence competitive binding assay, OBP11 (SfurOBP11; ligand concentration 20, replicate 1): 31322
Fluorescence intensity, fluorescence competitive binding assay, OBP11 (SfurOBP11; ligand concentration 20, replicate 2): 31721
Fluorescence intensity, fluorescence competitive binding assay, OBP11 (SfurOBP11; ligand concentration 20, replicate 3): 27795
Fluorescence competitive binding assay, fluorescence intensity (SfurOBP1; ligand concentration 2 (μM)): 7938 and 8209 and 9100
Fluorescence competitive binding assay, fluorescence intensity (SfurOBP1; ligand concentration 4 (μM)): 8199 and 9497 and 8248
Fluorescence competitive binding assay, fluorescence intensity (SfurOBP1; ligand concentration 6 (μM)): 9970 and 9490 and 9404
Fluorescence competitive binding assay, fluorescence intensity (SfurOBP1; ligand concentration 8 (μM)): 9879 and 9942 and 9021
Fluorescence competitive binding assay, fluorescence intensity (SfurOBP1; ligand concentration 10 (μM)): 11694 and 10870 and 12178
Fluorescence competitive binding assay, fluorescence intensity (SfurOBP1; ligand concentration 12 (μM)): 10792 and 13471 and 12081
Fluorescence competitive binding assay, fluorescence intensity (SfurOBP1; ligand concentration 14 (μM)): 13762 and 12603 and 7069
Fluorescence competitive binding assay, fluorescence intensity (SfurOBP1; ligand concentration 16 (μM)): 15566 and 12262 and 13672
Fluorescence competitive binding assay, fluorescence intensity (SfurOBP1; ligand concentration 18 (μM)): 13469 and 13374 and 13884
Fluorescence competitive binding assay, fluorescence intensity (SfurOBP1; ligand concentration 20 (μM)): 16296 and 16551 and 15519
IC50 (SfurOBP1; SfurOBP1, protein and 1-NPN both 2.0 µM, competitor 2-20 µM, read-out: IC50): > 20 µM
Fluorescence competitive binding assay, fluorescence intensity (SfurOBP3; ligand concentration 2): 42528 and 41583 and 43473
Fluorescence competitive binding assay, fluorescence intensity (SfurOBP3; ligand concentration 4): 41210 and 39055 and 38819
Fluorescence competitive binding assay, fluorescence intensity (SfurOBP3; ligand concentration 6): 40763 and 42069 and 38391
Fluorescence competitive binding assay, fluorescence intensity (SfurOBP3; ligand concentration 8): 40006 and 42611 and 39486
Fluorescence competitive binding assay, fluorescence intensity (SfurOBP3; ligand concentration 10): 37952 and 40731 and 37192
Fluorescence competitive binding assay, fluorescence intensity (SfurOBP3; ligand concentration 12): 41103 and 37710 and 38844
Fluorescence competitive binding assay, fluorescence intensity (SfurOBP3; ligand concentration 14): 39070 and 39869 and 40524
Fluorescence competitive binding assay, fluorescence intensity (SfurOBP3; ligand concentration 16): 39064 and 38170 and 38620
Fluorescence competitive binding assay, fluorescence intensity (SfurOBP3; ligand concentration 18): 39885 and 40160 and 39604
Fluorescence competitive binding assay, fluorescence intensity (SfurOBP3; ligand concentration 20): 39750 and 40400 and 40150
IC50 (SfurOBP3; SfurOBP3, protein and 1-NPN both 2.0 µM, competitor 2-20 µM, read-out: IC50): > 20 µM
IC50 (SfurOBP2; SfurOBP2, protein and 1-NPN both 2.0 µM, competitor 2-20 µM, read-out: IC50): > 20 µM
Fluorescence competitive binding assay, OBP2 (raw fluorescence reading) (SfurOBP2; ligand concentration 2 (unit not given), replicate column 1 of 3): 15375
Fluorescence competitive binding assay, OBP2 (raw fluorescence reading) (SfurOBP2; ligand concentration 2 (unit not given), replicate column 2 of 3): 16260
Fluorescence competitive binding assay, OBP2 (raw fluorescence reading) (SfurOBP2; ligand concentration 2 (unit not given), replicate column 3 of 3): 17114
Fluorescence competitive binding assay, OBP2 (raw fluorescence reading) (SfurOBP2; ligand concentration 4 (unit not given), replicate column 1 of 3): 15250
Fluorescence competitive binding assay, OBP2 (raw fluorescence reading) (SfurOBP2; ligand concentration 4 (unit not given), replicate column 2 of 3): 17637
Fluorescence competitive binding assay, OBP2 (raw fluorescence reading) (SfurOBP2; ligand concentration 4 (unit not given), replicate column 3 of 3): 17949
Fluorescence competitive binding assay, OBP2 (raw fluorescence reading) (SfurOBP2; ligand concentration 6 (unit not given), replicate column 1 of 3): 17180
Fluorescence competitive binding assay, OBP2 (raw fluorescence reading) (SfurOBP2; ligand concentration 6 (unit not given), replicate column 2 of 3): 18194
Fluorescence competitive binding assay, OBP2 (raw fluorescence reading) (SfurOBP2; ligand concentration 6 (unit not given), replicate column 3 of 3): 18919
Fluorescence competitive binding assay, OBP2 (raw fluorescence reading) (SfurOBP2; ligand concentration 8 (unit not given), replicate column 1 of 3): 15100
Fluorescence competitive binding assay, OBP2 (raw fluorescence reading) (SfurOBP2; ligand concentration 8 (unit not given), replicate column 2 of 3): 16066
Fluorescence competitive binding assay, OBP2 (raw fluorescence reading) (SfurOBP2; ligand concentration 8 (unit not given), replicate column 3 of 3): 16289
Fluorescence competitive binding assay, OBP2 (raw fluorescence reading) (SfurOBP2; ligand concentration 10 (unit not given), replicate column 1 of 3): 16213
Fluorescence competitive binding assay, OBP2 (raw fluorescence reading) (SfurOBP2; ligand concentration 10 (unit not given), replicate column 2 of 3): 16940
Fluorescence competitive binding assay, OBP2 (raw fluorescence reading) (SfurOBP2; ligand concentration 10 (unit not given), replicate column 3 of 3): 17695
Fluorescence competitive binding assay, OBP2 (raw fluorescence reading) (SfurOBP2; ligand concentration 12 (unit not given), replicate column 1 of 3): 14964
Fluorescence competitive binding assay, OBP2 (raw fluorescence reading) (SfurOBP2; ligand concentration 12 (unit not given), replicate column 2 of 3): 18259
Fluorescence competitive binding assay, OBP2 (raw fluorescence reading) (SfurOBP2; ligand concentration 12 (unit not given), replicate column 3 of 3): 16491
Fluorescence competitive binding assay, OBP2 (raw fluorescence reading) (SfurOBP2; ligand concentration 14 (unit not given), replicate column 1 of 3): 16687
Fluorescence competitive binding assay, OBP2 (raw fluorescence reading) (SfurOBP2; ligand concentration 14 (unit not given), replicate column 2 of 3): 18876
Fluorescence competitive binding assay, OBP2 (raw fluorescence reading) (SfurOBP2; ligand concentration 14 (unit not given), replicate column 3 of 3): 18074
Fluorescence competitive binding assay, OBP2 (raw fluorescence reading) (SfurOBP2; ligand concentration 16 (unit not given), replicate column 1 of 3): 17882
Fluorescence competitive binding assay, OBP2 (raw fluorescence reading) (SfurOBP2; ligand concentration 16 (unit not given), replicate column 2 of 3): 16512
Fluorescence competitive binding assay, OBP2 (raw fluorescence reading) (SfurOBP2; ligand concentration 16 (unit not given), replicate column 3 of 3): 18645
Fluorescence competitive binding assay, OBP2 (raw fluorescence reading) (SfurOBP2; ligand concentration 18 (unit not given), replicate column 1 of 3): 18334
Fluorescence competitive binding assay, OBP2 (raw fluorescence reading) (SfurOBP2; ligand concentration 18 (unit not given), replicate column 2 of 3): 17452
Fluorescence competitive binding assay, OBP2 (raw fluorescence reading) (SfurOBP2; ligand concentration 18 (unit not given), replicate column 3 of 3): 17782
Fluorescence competitive binding assay, OBP2 (raw fluorescence reading) (SfurOBP2; ligand concentration 20 (unit not given), replicate column 1 of 3): 16896
Fluorescence competitive binding assay, OBP2 (raw fluorescence reading) (SfurOBP2; ligand concentration 20 (unit not given), replicate column 2 of 3): 19235
Fluorescence competitive binding assay, OBP2 (raw fluorescence reading) (SfurOBP2; ligand concentration 20 (unit not given), replicate column 3 of 3): 19174
SMILES: CCCCCCCCCCCCC=O [tridecanal]
number of insects choosing hexane arm (S. furcifera adults): 11
number of insects choosing volatilies arm (S. furcifera adults): 13
number of insects failed (no choice) (S. furcifera adults): 16
